The values below come from ChEMBL document CHEMBL1201862, “PubChem BioAssay data set” (2004).

Among the test systems are SF-268; KM12; SK-OV-3; SR; SF-295; ACHN; TK-10; NCI-H23; NCI-H460; NCI-H522; HT-29; HCC 2998; SW-620; A549; OVCAR-3; NCI-H226; CCRF-CEM.
Holding throughout (assay): DTP human tumour cell line panel, 48 h

Several values for one entry are separate records, joined by “and”; a condition that tells them apart may be missing. Equal entries are not always repeated.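 Step 1: Grow cells in 96-well plates. Step 2: Expose to compound for 48 hours at 5 concentrations. Step 3: Interpolate endpoints linearly; if unreached, use highest concentration. GI50 = concentration required for 50% inhibition of growth.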 Activity calls are given as the source filed them. No stated cut-off is given here; in the data, active = GI50 up to about 1.1 µM and inactive = higher. Where only a bound is given, the exact number is not on record here.

With `S=c1sc2c(Cl)ncnc2n1-c1ccccc1`, the GI50 was 5.05 µM (inactive) in the assay on SF-268; 17.2 µM (inactive) with KM12; 20 µM (inactive) with SK-OV-3; 3.27 µM (inactive) in the assay with SR; 12.8 µM (inactive) in the assay on SF-295; 16.5 µM (inactive) in the assay on ACHN. In addition, the GI50 with TK-10 was 17.8 µM (inactive); in the assay on NCI-H23, 17.4 µM (inactive); with NCI-H460, 15.7 µM (inactive); in the assay with NCI-H522 it was 2.01 µM (inactive); in the assay on HT-29, 11.4 µM (inactive); with HCC 2998 it was 17.1 µM (inactive). In addition, the GI50 with SW-620 was 17.4 µM (inactive); in the assay with A549, 28.8 µM (inactive); in the assay on OVCAR-3, 15.4 µM (inactive); in the assay with NCI-H226, 13.4 µM (inactive).

For `NC(=O)/C(=N\NC(=O)C[n+]1ccccc1)C1NC(=O)NC1=O` (centres undefined), the GI50 with SF-268, with KM12, with SK-OV-3, in the assay with SR, in the assay on SF-295 and in the assay with ACHN was > 100 µM (inactive) each time. For the same compound, the GI50 in the assay on TK-10, with CCRF-CEM, in the assay with NCI-H23, in the assay with NCI-H460, in the assay with HT-29 and with HCC 2998 was > 100 µM (inactive) throughout. For the same compound, the GI50 was 33.6 µM (inactive) with SW-620, > 100 µM (inactive) in the assay on A549, > 100 µM (inactive) in the assay with OVCAR-3 and > 100 µM (inactive) in the assay with NCI-H226.

With `O=C(CCc1n[nH]c(=S)o1)Nc1cc(Cl)c(Cl)cc1Cl`, the GI50 with SF-268 is 26.5 µM (inactive); in the assay on KM12 it was 87.9 µM (inactive); with SK-OV-3, > 100 µM (inactive); with SF-295, > 100 µM (inactive); with ACHN, 40.5 µM (inactive); in the assay on TK-10 it was 42.5 µM (inactive). Also, the GI50 is 31.6 µM (inactive) in the assay with CCRF-CEM; > 100 µM (inactive) with NCI-H23; 46.6 µM (inactive) in the assay on NCI-H460; 71.9 µM (inactive) in the assay on NCI-H522; 25.8 µM (inactive) in the assay on HT-29; > 100 µM (inactive) in the assay with HCC 2998. Moreover, the GI50 in the assay on SW-620 is 12.9 µM (inactive); in the assay with A549, 67.8 µM (inactive); in the assay on OVCAR-3 it was 41.8 µM (inactive); in the assay with NCI-H226, 66.4 µM (inactive).

With `O=c1[nH]cnc2c1nnn2C1C=C(CO)C(O)C1O` (centres undefined), the GI50 in the assay on SF-268 is 74.1 µM (inactive); in the assay with KM12, > 100 µM (inactive); in the assay on SK-OV-3, > 100 µM (inactive); in the assay on SR, > 100 µM (inactive); in the assay on SF-295, > 100 µM (inactive); with ACHN, > 100 µM (inactive). The GI50 in the assay on TK-10, in the assay with CCRF-CEM, in the assay with NCI-H23, in the assay on NCI-H460, in the assay on HT-29 and with HCC 2998 was > 100 µM (inactive) each time. The GI50 was > 10 µM (inactive) with SW-620, > 100 µM (inactive) in the assay with A549, > 100 µM (inactive) in the assay on OVCAR-3 and > 100 µM (inactive) in the assay on NCI-H226.

Turning to `C[C@]12CCC3[C@@H](CC[C@@H]4c5nonc5CC[C@]34C)C1CC[C@@H]2O` (some centres undefined), the GI50 with SF-268 is 29.6 µM (inactive); with KM12 it was 37.8 µM (inactive); in the assay on SK-OV-3, 30.5 µM (inactive); in the assay on SF-295, 34.8 µM (inactive); in the assay on ACHN, 23.6 µM (inactive); with TK-10 it was 29.5 µM (inactive). Further, the GI50 with CCRF-CEM is 22 µM (inactive); with NCI-H23, 32.1 µM (inactive); in the assay with NCI-H460, 25.9 µM (inactive); with NCI-H522 it was 17.8 µM (inactive); with HT-29 it was 32.7 µM (inactive); in the assay with HCC 2998 it was 31.8 µM (inactive). For the same compound, the GI50 with SW-620 is 29.3 µM (inactive); with A549 it was 25.5 µM (inactive); in the assay with OVCAR-3 it was 21.1 µM (inactive); in the assay with NCI-H226 it was 38.3 µM (inactive).

As to `CCOC(=O)C(C(=O)c1ccccc1-c1ccccc1C(=O)O)=P(c1ccccc1)(c1ccccc1)c1ccccc1`, the GI50 in the assay on SF-268 was 41.6 µM (inactive); with SR, 23.6 µM (inactive); in the assay with SF-295 it was 31.9 µM (inactive); in the assay with ACHN, 30 µM (inactive); with TK-10 it was 80.4 µM (inactive); in the assay with CCRF-CEM it was 20.7 µM (inactive). Also, the GI50 in the assay with NCI-H23 is 20 µM (inactive); with NCI-H460, 16.5 µM (inactive); in the assay on HT-29, 25 µM (inactive); in the assay with HCC 2998, 22.3 µM (inactive); in the assay on SW-620, 31.3 µM (inactive); in the assay with A549, 17.8 µM (inactive). Further, the GI50 in the assay on OVCAR-3 was 25.1 µM (inactive); in the assay with NCI-H226 it was 24.4 µM (inactive).

For `CCN(CC)CC(C)(C)C(=O)/C=C/c1cccc(/C=C/C(=O)C(C)(C)CN(CC)CC)c1`, the GI50 in the assay with SF-268 was 0.429 µM (active); in the assay with KM12 it was 0.471 µM (active); with SK-OV-3 it was 1.45 µM (inactive); in the assay with SR, 0.305 µM (active); with SF-295, 1.74 µM (inactive); in the assay on ACHN, 1.15 µM (inactive). In addition, the GI50 with TK-10 was 1.14 µM (inactive); with CCRF-CEM, 0.337 µM (active); in the assay with NCI-H23, 1.3 µM (inactive); with NCI-H460, 0.692 µM (active); in the assay with HT-29, 0.366 µM (active); in the assay on HCC 2998, 1.22 µM (inactive). Further, the GI50 with SW-620 was 0.187 µM (active); in the assay with A549 it was 1.33 µM (inactive); in the assay on OVCAR-3, 1.11 µM (active); in the assay with NCI-H226, 1.76 µM (inactive).

For the compound `Cc1cc2c(c(C#N)c1C)NC(=O)CCC2=O`, the GI50 in the assay with KM12, with SR, with SF-295, in the assay on ACHN, with CCRF-CEM and with NCI-H23 was > 100 µM (inactive) in each case. Moreover, the GI50 in the assay with NCI-H460, in the assay on HT-29, in the assay with HCC 2998, with SW-620, in the assay with A549 and in the assay on OVCAR-3 was > 100 µM (inactive) throughout.

For `C[C@@H]1C[C@@H]2C(=O)N(c3ccccc3)C(=O)[C@@H]2c2[nH]c3ccc(Br)cc3c21`, the GI50 in the assay on SF-268 is 41.5 µM (inactive); with KM12 it was 25.2 µM (inactive); in the assay with SK-OV-3, 22.3 µM (inactive); in the assay with SR, 42 µM (inactive); in the assay on SF-295, 32.4 µM (inactive); in the assay on ACHN it was 45.1 µM (inactive). The GI50 in the assay with TK-10 is 68.9 µM (inactive); with CCRF-CEM, > 100 µM (inactive); in the assay on NCI-H23 it was 89.7 µM (inactive); with NCI-H460 it was 42.3 µM (inactive); with NCI-H522, 24 µM (inactive); with HCC 2998, 51.1 µM (inactive). The GI50 in the assay on SW-620 was 35.5 µM (inactive); with A549, 33.6 µM (inactive); with OVCAR-3 it was 23.7 µM (inactive).

For `N#CC(c1ccccc1)c1nc2ccc(N)cc2[n+]([O-])c1C(C#N)c1ccccc1` (centres undefined), the GI50 in the assay on SF-268 is > 100 µM (inactive); in the assay on KM12 it was 60.7 µM (inactive); in the assay with SK-OV-3 it was > 100 µM (inactive); in the assay on SR, 23.8 µM (inactive); in the assay on SF-295, > 100 µM (inactive); in the assay on ACHN it was 58.1 µM (inactive). Moreover, the GI50 in the assay on TK-10 was > 100 µM (inactive); with CCRF-CEM, 46.6 µM (inactive); in the assay with NCI-H23 it was 67.8 µM (inactive); in the assay on NCI-H460, 73.3 µM (inactive); in the assay with NCI-H522 it was 46.9 µM (inactive); with HT-29, 58.7 µM (inactive). For the same compound, the GI50 with SW-620 is 57.4 µM (inactive); in the assay with A549, 57.8 µM (inactive); in the assay with OVCAR-3, 91.8 µM (inactive); in the assay with NCI-H226, > 100 µM (inactive).

With `C1=Cc2nc1c(-c1ccncc1)c1ccc([n-]1)c(-c1ccncc1)c1nc(c(-c3ccncc3)c3ccc([n-]3)c2-c2ccncc2)C=C1.[Zn+2]`, the GI50 with SF-268, with KM12, in the assay on SK-OV-3, in the assay with SF-295, with ACHN and in the assay with TK-10 was > 100 µM (inactive) throughout. Moreover, the GI50 with CCRF-CEM, in the assay with NCI-H23, in the assay on NCI-H460, with NCI-H522, in the assay on HT-29 and in the assay with HCC 2998 was > 100 µM (inactive) each time. Also, the GI50 with SW-620, in the assay with A549, with OVCAR-3 and in the assay on NCI-H226 was > 100 µM (inactive) throughout.

In the case of `C[C@@H]1CC[C@@]2(C)OC(c3ccccc3)[C@H](CO)N2C1=O` (some centres undefined), the GI50 with SF-268, in the assay with KM12, in the assay with SR, with SF-295, with ACHN and in the assay on TK-10 was > 100 µM (inactive) each time. Besides, the GI50 in the assay on NCI-H23, in the assay on NCI-H460, in the assay with HT-29, in the assay on SW-620, in the assay on A549 and with OVCAR-3 was > 100 µM (inactive) throughout.

For `O=c1ncccn1[C@@H]1O[C@H](CO)[C@@H](O)[C@@H]1F`, the GI50 with SF-268 is > 100 µM (inactive); in the assay on SK-OV-3, > 100 µM (inactive); with SR, > 68.2 µM (inactive); in the assay with SF-295 it was > 100 µM (inactive); in the assay on ACHN, > 100 µM (inactive); in the assay with TK-10, > 100 µM (inactive) and > 69.5 µM (inactive). The GI50 in the assay on NCI-H23 is > 100 µM (inactive); with NCI-H522, > 100 µM (inactive); in the assay with HT-29, > 100 µM (inactive) and > 61.9 µM (inactive); with HCC 2998, > 100 µM (inactive); with A549, > 100 µM (inactive); in the assay with OVCAR-3, > 100 µM (inactive). Further, the GI50 in the assay on NCI-H226 is > 100 µM (inactive).
